Laboratory results published in patent publication US6699685B1, “Method, test media and chromogenic compounds for identifying and differentiating general coliforms and escherichia coli bacteria” (RCR Scientific, Inc., priority 1990, dated 2004).

How the values were obtained:
Enterobacter cloacae = test: Colony colour test of chromogenic substrate in medium (Example 1); format: cell-based
Text: (§1) 6-Chloroindolyl-β-D-galactoside and 5-bromo-4-chloro-3-indolyl-β-D-glucuronide (X-gluc) were each tested separately with 17 different bacterial species including β-galactosidase producing microorganisms, β-glucuronidase producing microorganisms, and microorganisms which produce neither enzyme.

Escherichia coli = test: as above; format: cell-based; conditions: for colour of colonies grown in medium containing the substrate: E. coli, substrates tested separately
Text: as §1

Pseudomonas aeruginosa = test: as above; format: cell-based
Text: as §1

Enterobacter aerogenes = test: as above; format: cell-based
Text: as §1

[1] = system: Acinetobacter calcoaceticus; test: as above; format: cell-based
Text: as §1

Sarcina lutea = test: as above; format: cell-based
Text: as §1

Bacillus cereus = test: as above; format: cell-based
Text: as §1

Serratia marcescens = test: as above; format: cell-based
Text: as §1

Bacillus subtilus = test: as above; format: cell-based
Text: as §1

Salmonella typhimurium = test: as above; format: cell-based
Text: as §1

Citrobacter freundii = test: as above; format: cell-based
Text: as §1

Proteus vulgaris = test: as above; format: cell-based
Text: as §1

[2] = as above; format: cell-based; conditions: Staphylococcus faecalis
Text: as §1

Klebsiella pneumoniae = test: as above; format: cell-based
Text: as §1

Staphylococcus aureus = test: as above; format: cell-based
Text: as §1

Bacillus megaterium = test: as above; format: cell-based
Text: as §1

[3] = system: Staphylococcus epidermidis; test: as above; format: cell-based
Text: as §1

β-galactosidase [4] = system: β-galactosidase
Text: The chromogenic β-galactosidase substrate is a β-galactoside comprising galactose joined by β-linkage to a substituent that forms an insoluble precipitate of a first color when liberated by the action of β-galactosidase on the substrate.

β-glucuronidase [5] = biological target: T1, β-glucuronidase (Escherichia coli, UniProt P05804); test: Precipitate formed by substrate upon reaction with enzyme; format: biochemical
T1 construct: E. coli produces β-galactosidase, but, unlike general (other) coliforms, also produces β-glucuronidase; endogenous in cells; host or cells: Escherichia coli colonies growing in the test medium
T1 sequence (P05804 whole entry): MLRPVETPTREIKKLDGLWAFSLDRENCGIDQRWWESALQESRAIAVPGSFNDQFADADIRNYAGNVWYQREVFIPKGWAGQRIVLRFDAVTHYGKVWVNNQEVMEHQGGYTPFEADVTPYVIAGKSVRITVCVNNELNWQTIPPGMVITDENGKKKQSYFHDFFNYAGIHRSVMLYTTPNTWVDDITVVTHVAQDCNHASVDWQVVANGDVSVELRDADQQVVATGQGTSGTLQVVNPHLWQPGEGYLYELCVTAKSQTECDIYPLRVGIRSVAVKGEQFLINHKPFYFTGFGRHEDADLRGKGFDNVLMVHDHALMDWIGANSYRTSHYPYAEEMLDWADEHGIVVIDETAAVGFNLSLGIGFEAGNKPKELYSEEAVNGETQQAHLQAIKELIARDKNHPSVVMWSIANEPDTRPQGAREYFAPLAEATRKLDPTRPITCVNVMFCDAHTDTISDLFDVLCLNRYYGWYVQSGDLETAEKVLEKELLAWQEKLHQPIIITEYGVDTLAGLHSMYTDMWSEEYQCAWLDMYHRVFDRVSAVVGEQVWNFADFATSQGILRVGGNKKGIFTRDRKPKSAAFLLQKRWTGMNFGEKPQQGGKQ
Text: The β-glucuronidase substrates and compounds described herein as “glucuronides” include carboxylate salts formed by reacting a suitable base with the glucuronic carboxyl group. Suitable bases include alkali metal or alkaline earth metal hydroxides or carbonates, for example, sodium hydroxide, potassium hydroxide, calcium hydroxide, magnesium hydroxide, and corresponding carbonates; and nitrogen bases such as ammonia and alkylamines such as trimethylamine, triethylamine and cyclohexylamine.

β-galactosidase [6] = conditions: known test compound; cited from earlier work
β-glucuronidase [7] = biological target: T1, β-glucuronidase; conditions: Watkins et al. 1988; cited from earlier work
coliforms = test: Enzyme inducer added to medium; format: cell-based; conditions: approximately 25 mg/liter of medium; some species of coliforms
Text: It is possible that the enzyme production of the general coliforms may be enhanced by the addition to the medium formulations of very small amounts of substances known as enzyme inducers. The specific inducer for β-galactosidase is available and is known chemically as isopropyl-β-D-thiogalactopyranoside.

## OC[C@H]1O[C@@H](Oc2c[nH]c3cc(Cl)ccc23)[C@H](O)[C@@H](O)[C@H]1O [6-chloroindolyl-β-D-galactoside]
Enterobacter cloacae
  colour of colonies grown in medium containing the substrate: magenta colonies
  coloured colonies in medium with 6-chloroindolyl-β-D-galactoside: +
Escherichia coli
  colour of colonies grown in medium containing the substrate: magenta colonies
Escherichia coli; Escherichia coli
  coloured colonies in medium with 6-chloroindolyl-β-D-galactoside: +
Pseudomonas aeruginosa
  coloured colonies in medium with 6-chloroindolyl-β-D-galactoside: −
Enterobacter aerogenes
  colour of colonies grown in medium containing the substrate: magenta colonies
  coloured colonies in medium with 6-chloroindolyl-β-D-galactoside: +
[1]
  coloured colonies in medium with 6-chloroindolyl-β-D-galactoside: −
Sarcina lutea
  coloured colonies in medium with 6-chloroindolyl-β-D-galactoside: −
Bacillus cereus
  coloured colonies in medium with 6-chloroindolyl-β-D-galactoside: −
Serratia marcescens
  coloured colonies in medium with 6-chloroindolyl-β-D-galactoside: −
Bacillus subtilus
  coloured colonies in medium with 6-chloroindolyl-β-D-galactoside: −
Salmonella typhimurium
  coloured colonies in medium with 6-chloroindolyl-β-D-galactoside: −
Citrobacter freundii
  colour of colonies grown in medium containing the substrate: magenta colonies
  coloured colonies in medium with 6-chloroindolyl-β-D-galactoside: +
Proteus vulgaris
  coloured colonies in medium with 6-chloroindolyl-β-D-galactoside: −
[2]
  coloured colonies in medium with 6-chloroindolyl-β-D-galactoside: −
Klebsiella pneumoniae
  colour of colonies grown in medium containing the substrate: magenta colonies
  coloured colonies in medium with 6-chloroindolyl-β-D-galactoside: +
Staphylococcus aureus
  coloured colonies in medium with 6-chloroindolyl-β-D-galactoside: −
Bacillus megaterium
  coloured colonies in medium with 6-chloroindolyl-β-D-galactoside: −
[3]
  coloured colonies in medium with 6-chloroindolyl-β-D-galactoside: −
β-galactosidase [4]
  precipitate formed when reacted upon by β-galactosidase: insoluble magenta precipitate

## O=C(O)[C@H]1O[C@@H](Oc2c[nH]c3cc(Cl)ccc23)[C@H](O)[C@@H](O)[C@@H]1O [6-chloroindolyl-β-D-glucuronide]
β-glucuronidase [5]
  precipitate formed when reacted upon by β-glucuronidase: insoluble magenta precipitate

## OC[C@H]1O[C@@H](Oc2c[nH]c3ccc(Br)c(Cl)c23)[C@H](O)[C@@H](O)[C@H]1O [X-gal, 5-bromo-4-chloro-3-indolyl-β-D-galactopyranoside]
β-galactosidase [6]
  precipitate formed when acted on by β-galactosidase: insoluble indigo blue precipitate

## O=C(O)[C@H]1O[C@@H](Oc2c[nH]c3ccc(Br)c(Cl)c23)[C@H](O)[C@@H](O)[C@@H]1O [X-gluc, 5-bromo-4-chloro-3-indolyl-β-D-glucuronide, reference compound]
Enterobacter cloacae
  coloured colonies in X-gluc medium: −
Escherichia coli
  colour of colonies grown in medium containing the substrate: indigo blue colonies
Escherichia coli; Escherichia coli
  coloured colonies in X-gluc medium: +
Pseudomonas aeruginosa
  coloured colonies in X-gluc medium: −
Enterobacter aerogenes
  coloured colonies in X-gluc medium: −
[1]
  coloured colonies in X-gluc medium: −
Sarcina lutea
  coloured colonies in X-gluc medium: −
Bacillus cereus
  coloured colonies in X-gluc medium: −
Serratia marcescens
  coloured colonies in X-gluc medium: −
Bacillus subtilus
  coloured colonies in X-gluc medium: −
Salmonella typhimurium
  coloured colonies in X-gluc medium: −
Citrobacter freundii
  coloured colonies in X-gluc medium: −
Proteus vulgaris
  coloured colonies in X-gluc medium: −
[2]
  coloured colonies in X-gluc medium: −
Klebsiella pneumoniae
  coloured colonies in X-gluc medium: −
Staphylococcus aureus
  coloured colonies in X-gluc medium: −
Bacillus megaterium
  coloured colonies in X-gluc medium: −
[3]
  coloured colonies in X-gluc medium: −
β-glucuronidase [7]
  precipitate formed when acted on by β-glucuronidase: insoluble indigo blue precipitate

## CC(C)S[C@@H]1O[C@H](CO)[C@H](O)[C@H](O)[C@H]1O [isopropyl-β-D-thiogalactopyranoside]
coliforms
  effect on speed of enzyme (β-galactosidase) production: positive and noticeable effect on the speed of enzyme production
